In general, EC50 refers to the concentration needed to bring the measured effect to its halfway point. Low values mean higher potency in that assay, high ones lower potency in that assay.

The assay has as its target T1, GPR43 (Mus musculus, UniProt Q8VCK6).
T1 sequence (Q8VCK6 1-330): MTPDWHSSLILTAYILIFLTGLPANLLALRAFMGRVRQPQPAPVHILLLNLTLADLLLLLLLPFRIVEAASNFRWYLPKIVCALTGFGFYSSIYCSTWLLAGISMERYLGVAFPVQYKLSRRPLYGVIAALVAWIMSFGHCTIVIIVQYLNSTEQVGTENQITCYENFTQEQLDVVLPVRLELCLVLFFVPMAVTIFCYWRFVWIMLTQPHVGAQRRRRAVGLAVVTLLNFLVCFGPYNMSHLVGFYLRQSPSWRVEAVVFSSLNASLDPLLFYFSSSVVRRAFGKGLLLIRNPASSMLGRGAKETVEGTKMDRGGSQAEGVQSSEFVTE
The format is cell-based.

Compound `CC(=O)CC(=O)O` [acetoacetate] returned an EC50 of 760 µM.

Values taken from article PMC6876247 (Proceedings of the National Academy of Sciences of the …, 2019).
